Target: T1, cannabinoid receptor 2 (CB2R) (Homo sapiens, UniProt P34972)
T1 construct: gene CNR2; SNAP-tagged human CB2R in HEK-293T cells
Experiment: HTRF competition binding against […] fluorophore-conjugated CM157 in HEK-293T cells; also cAMP and β-arrestin II recruitment
Format: cell-based

T1 sequence (P34972 whole entry): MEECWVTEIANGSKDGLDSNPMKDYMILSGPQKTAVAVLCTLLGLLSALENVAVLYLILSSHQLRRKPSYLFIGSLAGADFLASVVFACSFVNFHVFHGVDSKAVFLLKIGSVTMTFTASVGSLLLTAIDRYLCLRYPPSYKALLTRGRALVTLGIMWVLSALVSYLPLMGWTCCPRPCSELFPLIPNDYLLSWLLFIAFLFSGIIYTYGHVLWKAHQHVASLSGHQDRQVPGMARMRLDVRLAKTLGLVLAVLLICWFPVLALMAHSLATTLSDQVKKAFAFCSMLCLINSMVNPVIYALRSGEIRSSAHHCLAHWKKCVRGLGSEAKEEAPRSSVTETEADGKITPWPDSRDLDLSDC

**Q.** `CCCC(C)(C)c1ccc2c(c1)OC(C)(C)[C@@H]1CC=C(C)C[C@@H]21` [JWH-133] was tested. Which Ki did it give?
**A.** 18 nM

From paper PMC12524789, “The Interplay Between CB2 and NMDA Receptors in Parkinson’s Disease” (International Journal of Molecular Sciences, 2025)
